Laboratory results as given in US9351947B2, “Use of catecholamines and related compounds as anti-angiogenic agents” (National Research Council of Canada, priority 2007, dated 2016).
“Also recorded” adds a separate entry of the source. Read-outs that look alike come from different tables or passages of the source.

Assays:
angiogenesis = settings: cited from earlier work; for Activity (angiogenic / anti-angiogenic): Ref. Thaker et al., 2006 (a), Ref. Basu et al., 2001 (b)
HUVECs [1] = assay: Invasion of HUVECs through Matrigel-coated filter (Matrigel Invasion Chambers); type: cell-based, human; settings: measured at 20 μM; HUVECs
Protocol: HUVECs were purchased from Cedarlane Laboratories (Burlington, Canada) and maintained in Endothelial Cell Basal Medium-2 (EBM-2) supplemented with EGM-2 growth factor mixture (Clonetics) and 2% Foetal bovine serum. The cells were cultured at 37° C. under a humidified 95%/5% (v/v) mixture of air and CO2. Invasion of endothelial cells was measured using BD BioCoatTM Growth Factor Reduced MatrigelTM Invasion Chambers (Beckton-Dickinson; […]). EBM-2 medium (500 μL each) was placed into the lower wells. HUVECs (2.5×10^4) in EBM-2 serum-free medium (500 μL) were seeded into each of the upper wells and incubated in the presence of a test compound. HUVECs were allowed to migrate for 36 h at 37° C. in an atmosphere of 95% air/5% CO2. HUVECs that remained on the upper surface of the filter were removed using a cotton swab. HUVECs that had migrated to the lower surface of the filters were fixed with methanol, stained with 0.1% crystal violet/20% (v/v) methanol and examined using a Leitz Labovert (Leitz, Wetzlar, Germany) inverted microscope after mounting on a slide. Three randomly selected microscopic fields were digitally captured using a Nikon […] 995 digital camera and the number of HUVECs in each photograph were directly counted. Each reported value represents the average and standard deviation of a total […] from two independent experiments.

HUVECs [2] = assay: Matrigel endothelial cell capillary-tube formation assay; type: cell-based, human; settings: 22 h; for Activity (anti-angiogenicity): measured at 20 μM, HUVECs on Matrigel
Protocol: HUVECs were purchased from Cedarlane Laboratories (Burlington, Canada) and maintained in Endothelial Cell Basal Medium-2 (EBM-2) supplemented with EGM-2 growth factor mixture (Clonetics) and 2% Foetal bovine serum. The cells were cultured at 37° C. under a humidified 95%/5% (v/v) mixture of air and CO2.
Matrigel endothelial cell tube formation assays were performed using BD Matrigel™ (Becton, Dickinson). BD Matrigel™ was thawed at 4° C., and 150 μL were quickly added to each well of a 48-well plate and allowed to solidify for 60 min at 37° C. HUVECs (7×10^4 cells/mL) In EC basal medium-2 (EBM-2) were seeded 250 μL per well onto the surface of the solid BD Matrigel™ in the presence of the compounds to be tested. The cells were incubated for 22 h at […] in a 5% CO2 incubator. Tube formation was monitored by using a Leitz Labovert (Leitz, Wetzlar, Germany) inverted microscope. Two randomly selected two microscopic fields were photographed with a digital camera (Nikon, COOLPICKS 995). The total length of tube structures in each photograph was measured using ImageJ™ free software (http://rsb.info.nih.gov/ij/) and was normalized to that of control with no test compound. Each reported value represents the average of total six photographs from three independent experiments.

[3] = 2.47% instilled to normal human eyes; cited from earlier work
[4] = acute intravenous, mice; cited from earlier work
[5] = Storage stability of the eye drop at 4° C. (HPLC profiles); type: physicochemical; settings: 0.10% (w/v) eye drop, pH 5.5, one month of storage at 4° C.
retinal capillaries = assay: Glycation of retinal capillaries in diabetic rats (anti-glycated BSA / anti-lectin staining); type: in vivo, Sprague-Dawley rats
Protocol: Animal weights were monitored every week.
The effects of (S)-isoproterenol on diabetic retinopathy were studied by staining retinal capillaries with antibodies against lectin. The capillary density at the retinal center, corresponding to the macular of the human eye, was analyzed.
Diabetes induces glycation in retina. Since (S)-isoproterenol is a potent anti-glycation agent, penetration of (S)-isoproterenol reduces glycation in diabetic retinal capillaries. Thus, the retinas, which were stained with antibodies against lectin, were also stained with antibodies against glycated bovine serum albumin, and the degree of glycation of retinal capillaries was analyzed.

[6] = Optical stability (racemization) in eye drop formulations, 10 days at 55° C., chiral HPLC; type: physicochemical; settings: for % optical purity: 3.0 mg/mL, pH 6.0, starting material 99.87%
Protocol: The optical isomers of (S)-isoproterenol bitartrate and (S)-isoproterenol dipivalate hydrochloride were separated by HPLC using Shiseido chiral CD-Ph column (250×4.6 mm; 5 μm; isocratic 60:40 of 0.5 M sodium perchlorate/water and acetonitrile; flow rate, 1.0 mL/min). The elution profile was monitored by the absorption at 223 nm for isoproterenol bitartrate and 264 nm for isoproterenol dipivalate hydrochloride. The optical impurities were quantitated by the absorbance at 223 nm for isoproterenol bitartrate and 264 nm for isoproterenol dipivalate hydrochloride and by using a curve fitting software TABLECurve2D (Systat). The impurities of (R)-isoproterenol bitartrate and (R)-isoproterenol dipivalate hydrochloride were estimated as […], respectively. Thus, the racemization induced during synthesis and purification was minimal, if it occurred.
Table 2 describes the optical purities of (S)-isoproterenol and (S)-isoproterenol dipivalate after incubation in various eye drop formulations for 10 days at 55° C. and compared with those before incubation. The incubation for 10 days at 55° C. corresponds to the incubation for 167 days at 22° C.

[7] = in vivo; cited from earlier work

CNCC(O)c1ccc(O)c(O)c1 (racemic) [(R,S)-Adrenaline]
Activity (angiogenic / anti-angiogenic) (angiogenesis): Angiogenic
Activity (anti-invasion) (HUVECs [1]): Non-antiinvasive
Activity (anti-angiogenicity) (HUVECs [2]): no anti-angiogenic activity

CC(C)(C)NCC(O)c1ccc(O)c(O)c1 (racemic) [(R,S)-N-tert-butylnoradrenaline]
Activity (anti-angiogenicity) (HUVECs [2]): Anti-angiogenic
Activity (anti-angiogenicity) (HUVECs [2]; listed as (R,S)—N-tert-butylnoradrenaline): anti-angiogenic activity

CC(C)NCC(O)c1ccc(O)c(O)c1 (racemic) [(R,S)-isoproterenol, reference compound]
duration of reduction in ocular tension [3]: at least 12 h
reduction in ocular tension [3]: 20%
Activity (anti-angiogenicity) (HUVECs [2]): did not show anti-angiogenic activity; also recorded: no anti-angiogenic activity; also recorded: Non-antiangiogenic

CCC(NC(C)C)C(O)c1ccc(O)c(O)c1 (racemic) [Isoetharine, 1-(3,4-dihydroxyphenyl)-2-(Isopropylamino)-1(R,S)-butanol]
Activity (anti-angiogenicity) (HUVECs [2]): Anti-angiogenic
Activity (anti-angiogenicity) (HUVECs [2]; listed as isoetharine): anti-angiogenic activity

CO[C@@H](CNC(C)C)c1ccc(O)c(O)c1 [(R)-1-(N-isopropyl)-3-methoxydopamine]
Activity (anti-angiogenicity) (HUVECs [2]): Anti-angiogenic

NC[C@H](O)c1ccc(O)c(O)c1 [(R)-Noradrenaline]
Activity (angiogenic / anti-angiogenic) (angiogenesis): Angiogenic^a

CC(C)NC[C@H](O)c1ccc(O)c(O)c1 [(R)-isoproterenol]
Activity (angiogenic / anti-angiogenic) (angiogenesis): Angiogenic
Activity (angiogenic / anti-angiogenic) (angiogenesis; listed as (R)-Isoproterenol): angiogenic
LD50 [4]: 57 ± 2 mg/kg
Activity (anti-invasion) (HUVECs [1]): did not show any anti-invasion activity; also recorded: Non-antiinvasive

CO[C@H](CNC(C)C)c1ccc(O)c(O)c1 [(S)-1-(N-isopropyl)-3-methoxydopamine]
Activity (anti-angiogenicity) (HUVECs [2]): Anti-angiogenic

CCNC[C@@H](O)c1ccc(O)c(O)c1 [(S)-N-ethylnoradrenaline]
Activity (anti-angiogenicity) (HUVECs [2]): Anti-angiogenic
Activity (anti-angiogenicity) (HUVECs [2]; listed as (S)—N-ethylnoradrenaline): anti-angiogenic activity

CCCCNC[C@@H](O)c1ccc(O)c(O)c1 [(S)-N-n-butylnoradrenaline]
Activity (anti-angiogenicity) (HUVECs [2]): Anti-angiogenic
Activity (anti-angiogenicity) (HUVECs [2]; listed as (S)—N-butylnoradrenaline): anti-angiogenic activity

CCCNC[C@@H](O)c1ccc(O)c(O)c1 [(S)-N-n-propylnoradrenaline]
Activity (anti-angiogenicity) (HUVECs [2]): Anti-angiogenic
Activity (anti-angiogenicity) (HUVECs [2]; listed as (S)—N-propylnoradrenaline): anti-angiogenic activity

NC[C@@H](O)c1ccc(O)c(O)c1 [(S)-Noradrenaline, reference compound]
Activity (anti-angiogenicity) (HUVECs [2]): Non-antiangiogenic
Activity (anti-angiogenicity) (HUVECs [2]; listed as (S)-noradrenaline): not anti-angiogenic

CC(C)NC[C@@H](O)c1ccc(OC(=O)C(C)(C)C)c(OC(=O)C(C)(C)C)c1 [(S)-isoproterenol dipivalate]
degradation of the active ingredient in eye drop (HPLC profiles) [5]: No degradation
effect on glycation in retinal capillaries (retinal capillaries; 0.1% eye drop): significantly reduced the glycation in retinal capillaries
red fluorescence intensity of AGEs normalized by the retinal capillary density (retinal capillaries; 0.1% eye drop twice a day, P 0.068 vs diabetic rats with vehicle): 0.44±0.17
blood glucose level (Group II, non-diabetic rats receiving prodrug eye drop, 27 week period): 5.1 ± 0.4 mM
blood glucose level (Group IV, diabetic rats receiving prodrug eye drop, stabilized level): 27 ± 5 mM
conversion to the (R)-isoform ([6]; 10 days at 55° C.): 0.02%
% optical purity ([6]; 10 days at 55° C., NaCl 8 mg/mL, Benzalkonium chloride 0.04 mg/mL, Tween 80 2.5 mg/mL): >99.90%
% optical purity ([6]; 10 days at 55° C., Povidone 2 mg/mL, Benzalkonium chloride 0.04 mg/mL, D-Mannitol 54.7 mg/mL): 99.90%
% optical purity ([6]; 10 days at 55° C., Povidone 2 mg/mL, D-Mannitol 54.7 mg/mL, Chlorobutanol 1 mg/mL, 2-hydroxypropyl cyclodextrin 10.1 mg/mL): 99.74%
% optical purity ([6]; 10 days at 55° C., Povidone 2 mg/mL, NaCl 8 mg/mL, Benzalkonium chloride 0.04 mg/mL, 2-hydroxypropyl cyclodextrin 10.1 mg/mL): 99.86%
average optical purity after incubating 10 days at 55° C. ([6]; average over the eye drop formulations): approximately 99.85±0.08%
optical purity after 2 years of storage at room temperature ([6]; extrapolated, from 99.87%): 99.78%

CNCC(O)c1ccc(OC(=O)C(C)(C)C)c(OC(=O)C(C)(C)C)c1 (centres unmarked) [Dipivefrin]
enhancement of ocular absorption versus adrenaline [7]: 17 time

NCCc1ccc(O)c(O)c1 [Dopamine]
concentration showing effective anti-angiogenic activity (angiogenesis; Basu et al., 2001): 1 µM
Activity (angiogenic / anti-angiogenic) (angiogenesis): Anti-angiogenic^b
potency (inhibition of capillary tube formation) (HUVECs [2]; angiogenic assay condition used in FIG. 1, 1-50 μM): comparable potency
